Source: patent US20090118350A1, “Biomarkers for Identifying Efficacy of Tegaserod in Patients with Chronic Constipation” (priority 2005, published 2009)

Test system: patients with chronic constipation
Assay: Clinical trial, primary efficacy: mean increase of 1 or more CSBM/week over baseline after 4 weeks of treatment (responders), by subgroup and genotype
Format: in vivo, human
Conditions: for % Responders: 6-mg bid
Protocol: Introduction. A clinical trial was performed to evaluate the efficacy of tegaserod (Zelmac®/Zelnorm™) at 6 mg bid (12 mg/day) or 2 mg bid (4 mg/day) vs. placebo by measuring the number of complete spontaneous bowel movements (CSBM) during the first 4 weeks of treatment. Secondary objectives included evaluating the number of CSBM during the entire 12-week treatment period, bowel habits, laxative use, and safety and tolerability issues. The clinical trial design consisted of a 2-week baseline period without medication, a 12-week, randomized, double-blind, placebo-controlled treatment period, and a 4-week withdrawal period without study medication. As part of the clinical trial, DNA was collected from patients at screening for pharmacogenetic analysis to evaluate genetic polymorphisms relating to drug targets and disease aetiology.
Samples. A total 1348 patients were randomized as the intent-to-treat (ITT) population. Blood samples from these patients were collected at the time of patient screening and DNA was extracted using the PUREGENE™ DNA Isolation Kit (D-50K). Of these, samples from 738 randomized patients had good quality genotype data for at least half of the 55 SNPs evaluated.
Clinical assessments. […] The primary efficacy endpoint evaluated was the increase of 1 or more CSBM/week over baseline after 4 weeks of treatment. A secondary endpoint evaluated in this genotyping study was RESP12, the increase of 1 of more CSBM/week over baseline after 12 weeks of treatment. Patients were classified as responders if they met these criteria and had completed at least 7 days of treatment. Additional secondary efficacy assessments were evaluated based on the weekly diary assessments, such as bothersome constipation, bothersome abdominal pain, and satisfaction with bowel habits at the end of the 12-week treatment period (using the baseline value as a co-variant for analysis).
Genotyping. A total of 61 polymorphisms in 23 candidate genes were selected for analysis. Genotyping was performed using the TaqMan® technology for most of the assays, while a few were performed in-house using the Third Wave Technologies Invader Assay technique (see TABLE 2 for assay IDs for all evaluated SNPs). Of the 61 SNPs genotyped, 55 yielded good quality, polymorphic genotypes for use in further evaluation.
Statistical analysis. Statistical analysis was performed using SAS version 8.2 (The SAS Institute, Cary, N.C., USA). Analysis methods included Fisher's Exact tests, analysis of Covariance (ANCOVA), logistic regression, and Mantel-Haenzel tests to determine odds ratios and 95% confidence intervals, with significance established at p<0.05. Calculation of linkage disequilibrium was performed using the GOLD (graphical overview of linkage disequilibrium) method described by Abecasis & Cookson, Bioinformatics 16: 182-3 (2000).
Demographic comparisons. TABLE 3 presents the demographic breakdown of the patients in the overall clinical study and those included in this genotype analysis. Distributions were similar between the genotype population and the total patient population. […] Based on these findings, it was decided to limit analysis to the Caucasian population, which accounted for nearly 90% of all patients, to prevent a confounding effect of race on subsequent genotype analyses. Furthermore, the analysis was also limited to those intent-to-treat patients that were treated with tegaserod or placebo for at least 7 days (total of 635 patients).
Comparison of overall response rates. TABLE 4 presents the overall response for the primary efficacy endpoint (a mean increase in 1 or more CSBM/week over baseline after 4 weeks) for tegaserod 6-mg bid compared with placebo for both the overall patient population and the subgroup of patients for which we had genotype data (all races and Caucasians only). […]

`[H]/N=C(/NCCCCC)N/N=C/c1c[nH]c2ccc(OC)cc12` [tegaserod, Tegaserod] was tested, and the “% Responders” value (4 weeks, All Caucasians (ITT, >=7 days), Age <65, M + F) was 46%, the “% Responders” value (4 weeks, All Caucasians (ITT, >=7 days), Age >=65, M + F) was 33% and the “% Responders” value (4 weeks, All Caucasians (ITT, >=7 days), Age All, Female) was 46%. The “% Responders” value (4 weeks, All Caucasians (ITT, >=7 days), Age All, M + F) was 45%, the “% Responders” value (4 weeks, All Caucasians (ITT, >=7 days), Age All, Male) was 37% and the “% Responders” value (4 weeks, All genotyped (ITT, >=7 days), Age <65, M + F) was 45%. For the same compound, the “% Responders” value (4 weeks, All genotyped (ITT, >=7 days), Age >=65, M + F) was 50%, the “% Responders” value (4 weeks, All genotyped (ITT, >=7 days), Age All, Female) was 45% and the “% Responders” value (4 weeks, All genotyped (ITT, >=7 days), Age All, M + F) was 46%. The “% Responders” value (4 weeks, All genotyped (ITT, >=7 days), Age All, Male) was 48%, the “% Responders” value (4 weeks, All patients (ITT, >=7 days), Age <65, M + F) was 45% and the “% Responders” value (4 weeks, All patients (ITT, >=7 days), Age >=65, M + F) was 35%. The “% Responders” value (4 weeks, All patients (ITT, >=7 days), Age All, Female) was 45%, the “% Responders” value (4 weeks, All patients (ITT, >=7 days), Age All, M + F) was 44% and the “% Responders” value (4 weeks, All patients (ITT, >=7 days), Age All, Male) was 36%. The “% Responders” value (4 weeks, Caucasians genotyped (ITT, >=7 days), Age <65, M + F, all genotypes) was 46%, the “% Responders” value (4 weeks, Caucasians genotyped (ITT, >=7 days), Age >=65, M + F, all genotypes) was 47% and the “% Responders” value (4 weeks, Caucasians genotyped (ITT, >=7 days), Age All, Female, all genotypes) was 45%. The “% Responders” value (4 weeks, Caucasians genotyped (ITT, >=7 days), Age All, M + F, all genotypes) was 46%, the “% Responders” value (4 weeks, Caucasians genotyped (ITT, >=7 days), Age All, Male, all genotypes) was 52% and the “% Responders” value (4 weeks, ITT Caucasians >=7 days, 0 of 14 SNPs) was 32%. The “% Responders” value (4 weeks, ITT Caucasians >=7 days, >=1 of 14 SNPs) was 53%, the “% Responders” value (4 weeks, ITT Caucasians >=7 days, AQP3 (PG ID 1838) genotype CC) was 43% and the “% Responders” value (4 weeks, ITT Caucasians >=7 days, AQP3 (PG ID 1838) genotype CG) was 47%. For the same compound, the “% Responders” value (4 weeks, ITT Caucasians >=7 days, AQP3 (PG ID 1838) genotype GG) was 71%, the “% Responders” value (4 weeks, ITT Caucasians >=7 days, Female (All ages), 0 of the 12 SNPs) was 33% and the “% Responders” value (4 weeks, ITT Caucasians >=7 days, Female (All ages), 1-12 of the 12 SNPs) was 59%. For the same compound, the “% Responders” value (4 weeks, ITT Caucasians >=7 days, HTR3B (PG ID 3755) genotype AA) was 46%, the “% Responders” value (4 weeks, ITT Caucasians >=7 days, HTR3B (PG ID 3755) genotype AC) was 44% and the “% Responders” value (4 weeks, ITT Caucasians >=7 days, HTR3B (PG ID 3755) genotype CC) was 67%. For the same compound, the “% Responders” value (4 weeks, ITT Caucasians >=7 days, HTR4 (PG ID 1746) genotype CC) was 42%, the “% Responders” value (4 weeks, ITT Caucasians >=7 days, HTR4 (PG ID 1746) genotype CT) was 44% and the “% Responders” value (4 weeks, ITT Caucasians >=7 days, HTR4 (PG ID 1746) genotype TT) was 75%. For the same compound, the “% Responders” value (4 weeks, ITT Caucasians >=7 days, HTR4 (PG ID 3743) genotype AA) was 43%, the “% Responders” value (4 weeks, ITT Caucasians >=7 days, HTR4 (PG ID 3743) genotype AC) was 46% and the “% Responders” value (4 weeks, ITT Caucasians >=7 days, HTR4 (PG ID 3743) genotype CC) was 78%. For the same compound, the “% Responders” value (4 weeks, ITT Caucasians >=7 days, HTR4 (PG ID 3747) genotype AA) was 43%, the “% Responders” value (4 weeks, ITT Caucasians >=7 days, HTR4 (PG ID 3747) genotype AT) was 45% and the “% Responders” value (4 weeks, ITT Caucasians >=7 days, HTR4 (PG ID 3747) genotype TT) was 70%. For the same compound, the “% Responders” value (4 weeks, ITT Caucasians >=7 days, HTR4 (PG ID 3753) genotype CC) was 43%, the “% Responders” value (4 weeks, ITT Caucasians >=7 days, HTR4 (PG ID 3753) genotype CT) was 44% and the “% Responders” value (4 weeks, ITT Caucasians >=7 days, HTR4 (PG ID 3753) genotype TT) was 75%. For the same compound, the “% Responders” value (4 weeks, ITT Caucasians >=7 days, HTR4 (PG ID 3754) genotype AA) was 46%, the “% Responders” value (4 weeks, ITT Caucasians >=7 days, HTR4 (PG ID 3754) genotype AT) was 42% and the “% Responders” value (4 weeks, ITT Caucasians >=7 days, HTR4 (PG ID 3754) genotype TT) was 67%. The “% Responders” value (4 weeks, ITT Caucasians >=7 days, HTR4 (PG ID 3756) genotype AA) was 39%, the “% Responders” value (4 weeks, ITT Caucasians >=7 days, HTR4 (PG ID 3756) genotype AC) was 46% and the “% Responders” value (4 weeks, ITT Caucasians >=7 days, HTR4 (PG ID 3756) genotype CC) was 71%. For the same compound, the “% Responders” value (4 weeks, ITT Caucasians >=7 days, M + F (<65), 0 of the 12 SNPs) was 33%, the “% Responders” value (4 weeks, ITT Caucasians >=7 days, M + F (<65), 1-12 of the 12 SNPs) was 61% and the “% Responders” value (4 weeks, ITT Caucasians >=7 days, M + F (>=65), 0 of the 12 SNPs) was 14%. For the same compound, the “% Responders” value (4 weeks, ITT Caucasians >=7 days, M + F (>=65), 1-12 of the 12 SNPs) was 70%, the “% Responders” value (4 weeks, ITT Caucasians >=7 days, M + F (All ages), 0 of the 12 high responder SNPs) was 31% and the “% Responders” value (4 weeks, ITT Caucasians >=7 days, M + F (All ages), 1-12 of the 12 high responder SNPs) was 62%. The “% Responders” value (4 weeks, ITT Caucasians >=7 days, MLN (PG ID 1783) genotype CC) was 47%, the “% Responders” value (4 weeks, ITT Caucasians >=7 days, MLN (PG ID 1783) genotype CT) was 40% and the “% Responders” value (4 weeks, ITT Caucasians >=7 days, MLN (PG ID 1783) genotype TT) was 63%. For the same compound, the “% Responders” value (4 weeks, ITT Caucasians >=7 days, Male (All ages), 0 of the 12 SNPs) was 20%, the “% Responders” value (4 weeks, ITT Caucasians >=7 days, Male (All ages), 1-12 of the 12 SNPs) was 82% and the “% Responders” value (4 weeks, ITT Caucasians >=7 days, SCNN1A (PG ID 3806) genotype GG) was 62%. The “% Responders” value (4 weeks, ITT Caucasians >=7 days, SCNN1A (PG ID 3806) genotype GT) was 47%, the “% Responders” value (4 weeks, ITT Caucasians >=7 days, SCNN1A (PG ID 3806) genotype TT) was 36% and the “% Responders” value (4 weeks, ITT Caucasians >=7 days, SLC12A2 (PG ID 1842) genotype AA) was 69%. For the same compound, the “% Responders” value (4 weeks, ITT Caucasians >=7 days, SLC12A2 (PG ID 1842) genotype AG) was 27%, the “% Responders” value (4 weeks, ITT Caucasians >=7 days, SLC12A2 (PG ID 1842) genotype GG) was 51% and the “% Responders” value (4 weeks, ITT Caucasians >=7 days, SLC12A2 (PG ID 3801) genotype CC) was 75%. For the same compound, the “% Responders” value (4 weeks, ITT Caucasians >=7 days, SLC12A2 (PG ID 3801) genotype CT) was 27%, the “% Responders” value (4 weeks, ITT Caucasians >=7 days, SLC12A2 (PG ID 3801) genotype TT) was 52% and the “% Responders” value (4 weeks, ITT Caucasians >=7 days, TPH1 (PG ID 1756) genotype GG) was 51%. The “% Responders” value (4 weeks, ITT Caucasians >=7 days, TPH1 (PG ID 1756) genotype GT) was 48%, the “% Responders” value (4 weeks, ITT Caucasians >=7 days, TPH1 (PG ID 1756) genotype TT) was 36% and the “% Responders” value (4 weeks, ITT Caucasians >=7 days, TPH1 (PG ID 3784) genotype CC) was 32%. The “% Responders” value (4 weeks, ITT Caucasians >=7 days, TPH1 (PG ID 3784) genotype CT) was 49%, the “% Responders” value (4 weeks, ITT Caucasians >=7 days, TPH1 (PG ID 3784) genotype TT) was 50% and the rate of response (lower dose 2-mg bid, 4 weeks, compared with placebo and with 6-mg bid) was “the response was less than that seen for the 6-mg bid dose”. The Odds Ratio (the two other genotyped SCNN1A SNPs (near 5' end and near 3' end)) was > 3.5.
